Here are results for 13 compounds from paper PMC2746412 (European journal of pharmacology, 2009).

For experiment [1], the target named is T1, GFP-SmSERT-B (Schistosoma mansoni, UniProt Q3I1M7). Put plainly: [3H]-serotonin efflux experiment in COS-7 cells.
The target of experiment [2] is T2, GFP-SmSERT-A (Schistosoma mansoni, UniProt Q3HL76). Put plainly: cell-based. The note with it: for potency difference versus SmSERTs as compared with hSERT (fold less potent at SmSERTs): SmSERTs (A and B) vs hSERT, from IC50 of Table 1. In kind it is cell-based.
The target of experiment [3] is T3, GFP-hSERT (Homo sapiens, UniProt P31645). Put plainly: Inhibition of [3H]-serotonin uptake in transfected COS-7 cells. It is filed as cell-based.
Experiment [4] has as its target T2, GFP-SmSERT-A. Put plainly: [3H]-serotonin efflux experiment in COS-7 cells.
Experiment [5] concerns the target T3, GFP-hSERT. It is filed as cell-based.
The target in experiment [6] is T1, GFP-SmSERT-B. Put plainly: cell-based.
The subject of experiment [7] is S. mansoni sporocysts. The following applies: treatment of the sporocyst snail stage; ref Boyle and Yoshino, 2005; cited from earlier work.
A further experiment deals with SmSERT-A (Schistosoma mansoni, UniProt Q3HL76). Put plainly: Two-electrode voltage clamp of substrate-elicited currents in Xenopus oocytes. In kind it is cell-based. The note with it: for substrate-elicited transport-associated currents, SmSERT-A: voltage-clamped Xenopus oocytes.
The next experiment addresses SmSERT-B (Schistosoma mansoni, UniProt Q3I1M7). In kind it is cell-based. The following applies: for substrate-elicited transport-associated currents, SmSERT-B: voltage-clamped Xenopus oocytes.
For the next experiment, the system named is Schistosoma infections. The following applies: ref Gryseels et al., 2006; cited from earlier work.
A further experiment concerns S. mansoni adult worms. The note with it: ref Wood and Mansour, 1986, cited from earlier work.
The subject of experiment [8] is S. mansoni sporocysts. The following applies: living sporocysts; ref Boyle et al., 2003; cited from earlier work.
Experiment [9] concerns the target T2, GFP-SmSERT-A. It is filed as cell-based. The note with it: COS-7 cells.
The target in experiment [10] is T1, GFP-SmSERT-B. In kind it is cell-based. The following applies: COS-7 cells.
[11] abbreviates: read-out: IC50 for serotonin transporter substrates, SmSERT-A.
Setting [12] is: read-out: IC50 for serotonin transporter substrates, hSERT.
Setting [13] is: Imax / (Vmax * Faraday constant), same batches of oocytes.

Read-outs that look alike come from different tables or passages of the source.

T3 sequence (P31645 whole entry): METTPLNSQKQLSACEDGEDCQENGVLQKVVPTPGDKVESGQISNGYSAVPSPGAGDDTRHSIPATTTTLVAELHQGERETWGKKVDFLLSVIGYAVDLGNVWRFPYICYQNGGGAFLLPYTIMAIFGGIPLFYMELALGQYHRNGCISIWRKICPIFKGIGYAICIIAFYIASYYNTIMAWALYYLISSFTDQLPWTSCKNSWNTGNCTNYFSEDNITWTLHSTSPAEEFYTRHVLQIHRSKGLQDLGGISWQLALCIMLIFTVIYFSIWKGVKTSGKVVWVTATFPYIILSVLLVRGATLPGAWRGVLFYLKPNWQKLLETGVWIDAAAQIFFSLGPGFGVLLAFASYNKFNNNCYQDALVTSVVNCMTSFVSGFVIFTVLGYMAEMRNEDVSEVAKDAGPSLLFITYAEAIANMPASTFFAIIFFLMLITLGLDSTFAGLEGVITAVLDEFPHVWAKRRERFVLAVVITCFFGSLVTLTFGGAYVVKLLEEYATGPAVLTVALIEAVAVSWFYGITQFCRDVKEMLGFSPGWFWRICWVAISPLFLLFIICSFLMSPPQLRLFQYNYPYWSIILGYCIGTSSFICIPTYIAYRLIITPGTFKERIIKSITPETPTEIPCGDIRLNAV

What is called IC50 is the concentration needed to halve the response being measured. Turning to `CNC(C)Cc1ccc2c(c1)OCO2` (racemic) [(±)MDMA], the “[3H]-serotonin efflux elicited by compound, SmSERT-B” value at GFP-SmSERT-B [1] is “not transported”. Further, the IC50 on GFP-SmSERT-A [2] (setting [11]) is 320000 ± 162000 nM; on GFP-hSERT [3] (setting [12]), 2700 ± 500 nM. Further, the “[3H]-serotonin efflux elicited by compound, SmSERT-A” value at GFP-SmSERT-A [4] is listed as “not transported”. The “[3H]-serotonin efflux elicited by compound, hSERT” value at GFP-hSERT [5] was “able to elicit serotonin efflux”.
For `O=[N+]([O-])c1ccc2nc(N3CCNCC3)ccc2c1` [6-Nitroquipazine], the figures for the IC50 against GFP-SmSERT-A [2], on GFP-hSERT [3] and against GFP-SmSERT-B [6] were 4 ± 2 nM, 2 ± 0.4 nM and 4 ± 2 nM, respectively. Further, the “potency difference versus SmSERTs as compared with hSERT (fold less potent at SmSERTs)” value on GFP-SmSERT-A [2] is recorded as “two-fold”.
For `COC(=O)[C@H]1[C@@H](OC(=O)c2ccccc2)C[C@@H]2CC[C@H]1N2C` [Cocaine], the half-maximal inhibitory concentration (IC50) was 37600 ± 16000 nM against GFP-SmSERT-A [2] and 35400 ± 7600 nM on GFP-SmSERT-B [6].
As for `CNCCC(Oc1ccc(C(F)(F)F)cc1)c1ccccc1` (centres unmarked) [Fluoxetine], the “production of daughter sporocysts” value in the experiment with S. mansoni sporocysts [7] is listed as “prevents the production of daughter sporocysts”.
Take `CN(C)CCCN1c2ccccc2CCc2ccccc21` [Imipramine]: the 50% inhibitory concentration (IC50) came out at 300 ± 100 nM at GFP-SmSERT-A [2] and 300 ± 200 nM against GFP-SmSERT-B [6].
On to `CSc1ccc2c(c1)C(N1CCN(C)CC1)Cc1ccccc1S2` (centres unmarked) [Methiothepin], for which the half-inhibitory concentration (IC50) against GFP-SmSERT-A [2] came to 1900 ± 700 nM; against GFP-hSERT [3] it was 6700 ± 4100 nM; on GFP-SmSERT-B [6], 2200 ± 700 nM.
On to `COC(=O)[C@H]1C(c2ccc(I)cc2)C[C@@H]2CC[C@H]1N2C` (some centres unmarked) [RTI-55], for which, at GFP-SmSERT-A [2], the “potency difference versus SmSERTs as compared with hSERT (fold less potent at SmSERTs)” value is on record as 60 fold. For the same compound, the 50% inhibitory concentration (IC50) was determined as 600 ± 400 nM at GFP-SmSERT-A [2] (read-out: IC50 for inhibiting serotonin uptake, SmSERT-A); 10 ± 10 nM on GFP-hSERT [3] (read-out: IC50 for inhibiting serotonin uptake, hSERT); 600 ± 400 nM at GFP-SmSERT-B [6] (read-out: IC50 for inhibiting serotonin uptake, SmSERT-B, COS-7 cells, 100 nM [3H]serotonin, 10 min, mean ± SD).
With `COc1ccc2[nH]cc(C3=CCNCC3)c2c1` [RU 24969], the IC50 stood at 180000 ± 63000 nM on GFP-SmSERT-A [2], 8500 ± 900 nM at GFP-hSERT [3] and 165000 ± 65000 nM at GFP-SmSERT-B [6]. On GFP-hSERT [5], the “[3H]-serotonin efflux elicited by compound, hSERT” value was “able to elicit serotonin efflux”.
Regarding `C[C@H](N)Cc1ccccc1` [S(+)Amphetamine], on GFP-SmSERT-B [1], the “[3H]-serotonin efflux elicited by compound, SmSERT-B” value is reported as “not transported”. In addition, on GFP-SmSERT-A [2] (setting [11]), the IC50 is 300000 ± 27000 nM. The “[3H]-serotonin efflux elicited by compound, SmSERT-A” value on GFP-SmSERT-A [4] is “not transported”.
Turning to `NCCc1c[nH]c2ccccc12` [Tryptamine], at SmSERT-A, the “substrate-elicited transport-associated currents, SmSERT-A” value is recorded as “elicits clear transport associated currents”. Also, the “substrate-elicited transport-associated currents, SmSERT-B” value on SmSERT-B was “elicits clear transport associated currents”. For the same compound, the values for the IC50 on GFP-SmSERT-A [2], against GFP-hSERT [3] and on GFP-SmSERT-B [6] were 19600 ± 3600 nM, 1400 ± 100 nM and 19300 ± 4400 nM, respectively. Also, the “[3H]-serotonin efflux elicited by compound, hSERT” value on GFP-hSERT [5] is “able to elicit serotonin efflux”.
`Cl.Cl.Clc1cccc(N2CCNCC2)c1` [m-CPP, m-1-(3-Chlorophenyl)piperazine dihydrochloride]: at GFP-SmSERT-B [1], the “[3H]-serotonin efflux elicited by compound, SmSERT-B” value is “not transported”. For the same compound, the IC50 at GFP-SmSERT-A [2] (setting [11]) was found to be 58000 ± 4000 nM; at GFP-hSERT [3] (setting [12]) it was 1800 ± 300 nM. The “[3H]-serotonin efflux elicited by compound, SmSERT-A” value at GFP-SmSERT-A [4] is on record as “not transported”. On GFP-hSERT [5], the “[3H]-serotonin efflux elicited by compound, hSERT” value is “able to elicit serotonin efflux”.
With `O=C(C1CCCCC1)N1CC(=O)N2CCc3ccccc3C2C1` (centres unmarked) [praziquantel], in the experiment on Schistosoma infections, the “activity on immature worms and eggs” value is “not active on immature worms and eggs”.
As for `NCCc1c[nH]c2ccc(O)cc12` [serotonin, 5-hydroxytryptamine], the “charges moved per serotonin molecule transported (Q/Jmax), SmSERT-A” value on SmSERT-A (setting [13]) amounted to 1.9 charges. Besides, the “substrate-elicited transport-associated currents, SmSERT-A” value at SmSERT-A was “concentration-dependent inward currents”. The “apparent affinity for serotonin uptake, adult female worms” value with S. mansoni adult worms (living adult female parasites) was 1.46 µM. Also, the “apparent affinity for serotonin uptake, adult male worms” value with S. mansoni adult worms (living adult male parasites) was 1.73 µM. Besides, the “apparent affinity for serotonin uptake in sporocysts” value with S. mansoni sporocysts [8] was 1.4 µM. The “charges moved per serotonin molecule transported (Q/Jmax), SmSERT-B” value on SmSERT-B (setting [13]) came out at 1.9 charges. Moreover, the “substrate-elicited transport-associated currents, SmSERT-B” value on SmSERT-B is given as “concentration-dependent inward currents”. The “transport of tritiated substrate by SmSERT-A” value at GFP-SmSERT-A [9] (data not shown) is “transport”. The “Vmax of serotonin uptake, SmSERT-A” value at GFP-SmSERT-A [9] (mean ± SD of three experiments) was 1.8 ± 1.4 pmol/min. Also, the Km on GFP-SmSERT-A [9] (read-out: apparent affinity (KT / KM) for serotonin uptake, SmSERT-A, 10 min, room temperature, mean ± SD of three experiments) is 2.3 ± 0.9 µM; on GFP-SmSERT-B [10] (read-out: apparent affinity (KT / KM) for serotonin uptake, SmSERT-B, 10 min, room temperature, mean ± SD of three experiments) it was 2.2 ± 1.1 µM. In addition, the “transport of tritiated substrate by SmSERT-B” value at GFP-SmSERT-B [10] (data not shown) is listed as “transport”. Besides, the “Vmax of serotonin uptake, SmSERT-B” value at GFP-SmSERT-B [10] (mean ± SD of three experiments) was 1.4 ± 1.1 pmol/min.
